Results reported in US20030166653A1, “Novel form of (r)-n-[5-methyl-8-(4-methylpiperazin-1-yl)-1,2,3,4-tetrahydro-2-naphthyl]-4-morpholinobenzamide” (priority 2003, published 2003).

Experiment: Water sorption by dynamic vapour sorption (DVS)
Assay type: physicochemical
Details: solid state characterization; monohydrobromide

Br.Cc1ccc(N2CCN(C)CC2)c2c1CC[C@@H](NC(=O)c1ccc(N3CCOCC3)cc1)C2 [Form B, (R)-N-[5-methyl-8-(4-methylpiperazin-1-yl)-1,2,3,4-tetrahydro-2-naphtyl]-4-morpholinobenzamide monohydrobromide]
hygroscopicity / water uptake in words: readily resorbs water again
